Laboratory results reported in patent US20210128702A1 (priority 2017, published 2021).

What was measured:
Type in all cases: cell-based
4 MM cell lines = system: 4 MM cell lines
[1] = system: Non-MM, bone marrow cells (CD138−)
U266 cells = system: U266 cells
MM.1S cells [2] = system: MM.1S cells
MM.1S cells [3] = system: MM.1S cells; remark: listed apart in the source

CC(C)C[C@H](NC(=O)[C@H](Cc1ccccc1)NC(=O)c1cnccn1)B(O)O [bortezomib]
polyUb protein fluorescence (proteotoxicity) (4 MM cell lines): increased fluorescence in all cell lines | polyUb proteins accumulation [1]: only modest polyUb proteins accumulation

tunicamycin
sensitization to Btz-induced apoptosis (U266 cells): sensitizes U266 cells to Btz-induced apoptosis

C[C@@H]1C[C@@H]([C@H](O)CC2CC(=O)NC(=O)C2)C(=O)[C@@H](C)C1 [cycloheximide]
effect on polyUb (MM.1S cells [2]): decreases polyUb | effect on bortezomib-induced apoptosis (MM.1S cells [3]): decreased bortezomib-induced apoptosis
